Data published in US6384045B1, “Tricyclic and tetracyclic pyrones” (Kansas State University Research Foundation, priority 1997, dated 2002).
Entries after “also recorded” stand apart in the source; their conditions may differ.

Assays:
[1] = test system: T1, liver and intestinal microsomal ACAT; assay: Inhibition of liver and intestinal microsomal ACAT activity; type: biochemical
T1 construct: other: 100 μM; other: 44 nM; other: 50 μM
Procedure: . Microsomes were prepared from liver and intestinal mucosal scrapings by sequential centrifugation and in vitro ACAT activity assays were done according to the method of Billheimer (Billheimer, J. T. (1985), “Cholesterol acyltransferase,” In Methods in Enzymology 111:286-293). Briefly, 100 μg microsomal protein, 22 μg BSA, and 52 nmol cholesterol and the synthesized drug in 5 μL DMSO were preincubated for 30 minutes at 37° C. in a phosphate buffer (200 μL total volume). After 30 minutes, 1 nmol [^14C]oleoyl-CoA was added as substrate and incubated for an additional 20 minutes. The reaction was stopped with the addition of 1 mL ethanol and lipids were extracted with hexane. Cholesteryl [^14C]oleate formation was quantified by thin-layer chromatography and data are expressed as percent inhibition of ACAT activity (pmol/μg protein per minute) compared to a control sample incubated with no drug. All samples were run in duplicate. […]

[2] = test system: L1210 lymphoblastic leukemia cells; assay: Inhibition of L1210 tumor cell growth in vitro (Coulter counter); type: cell-based, Murine; conditions: for inhibition of L1210 cell growth (% reduction of control cell numbers): 50 μM, 3 and 4 days in culture; for reduction of L1210 cell numbers vs control: 0.78 μM
Procedure: Cells were plated at an initial density of 1×10^4 cells/0.5 ml/well in RPMI 1640 medium, containing 7.5% fortified bovine calf serum, and grown at 37° C. for 4 days in a humidified incubator in 5% CO2 in air. Cells were incubated in the presence or absence (^•, control) of 50 μM 3A (▪), 2D & 2E (□),3D & 3E (▴), 2B & 2C (Δ) 2A (♦), 3B & 3C (⋄), or 10 μM CPT (∘) and their density was monitored in triplicate every 24 h using a Coulter counter. Cells numbers are plotted on a logarithmic scale.
(§1) All solutions of tricyclic pyrone analogs were dissolved and diluted in 100% ethanol (ETOH), whereas CPT (Sigma Chemical Co., St. Louis, Mo.) solutions were prepared in 100% dimethyl sulfoxide (DMSO). Murine L1210 lymphoblastic leukemia cells, obtained from the American Type Culture Collection (Rockville, Md.), were maintained in continuous exponential growth by twice-a-week passage in RPMI 1640 medium supplemented with 7.5% fortified bovine calf serum (HyClone Laboratories, Inc., Logan, Utah). The cultures were incubated at 37° C. in a humidified atmosphere containing 5% CO2. All drugs were supplemented to the culture medium in 1- or 2 μl aliquots. The concentration of vehicle in the final incubation volume never exceeded 0.2-0.4%. […] Control cells incubated in the absence of drugs were similarly treated with vehicle only and, in every experiment, all incubates received the same volume of solvent.
For tumor cell growth, L1210 cells were resuspended in fresh serum-containing RPMI 1640 medium, plated at an initial density of 1×10^4 cells/0.5 ml, and incubated in 48-well Costar cell culture plates (Costar, Cambridge, Mass.). Cells were grown for 4 days in the presence or absence of drugs and their density was monitored every 24 h using a Coulter counter (Coulter Electronics, Ltd., Luton Beds, England). Data of all in vitro experiments were analyzed using Student's t-test with the level of significance set at P<0.05.

[3] = test system: L1210 lymphoblastic leukemia cells; assay: Inhibition of DNA synthesis (3H-thymidine incorporation) in L1210 cells in vitro; type: cell-based, Murine; conditions: for inhibition of DNA synthesis in L1210 cells: 90 min + 30 min pulse
Procedure: FIG. 1 illustrates a comparison of the effects of four new tricyclic pyrone derivatives and CPT on DNA synthesis in L1210 cells in vitro. About 2.53×10^6 cells suspended in 0.5 ml of RPMI 1640 medium were incubated at 37° C. for 90 minutes in the presence or absence (control) of the indicated concentrations of drugs. The cells were then pulse-labeled for an additional 30 minutes to determine the rate of ^3H-thymidine incorporation into DNA. DNA synthesis in vehicle-treated control cells was 43,956±4,569 cpm (100±11%). The blank value (1,241±99 cpm) for cells pulse-labeled for 0 minutes with 1 μCi of ^3H-thymidine has been subtracted from the results. Bars: means±SD (n=3).
as §1
For DNA synthesis, L1210 cells were resuspended in fresh serum-free RPMI 1640 medium at a density of about 2.5×10^6 cells/0.5 ml. The cells were incubated at 37° C. for 90 min in the presence or absence of drugs and then pulse-labeled for an additional 30 min with 1 μCi of [methyl-^3H]thymidine (51 Ci/mmol; Amersham Corp., Arlington Heights, Ill.). The incubations were terminated by the addition of 0.5 ml of 10% trichloroacetic acid (TCA). After holding on ice for 15 min, the acid-insoluble material was recovered over Whatman GF/A glass microfibre filters and washed thrice with 2 ml of 5% TCA and twice with 2 ml of 100% EtOH. After drying the filters, the radioactivity bound to the acid-precipitable material was determined by liquid scintillation counting in 10 ml of Bio-Safe NA (Research Products International Corp., Mount Prospect, Ill.).

[4] = target: acetylcholinesterase (AChE) (UniProt O42275); type: biochemical, electric eel; fetal bovine serum; conditions: read-out: AChE inhibition constant Ki ± std. error; 30° C., pH 8.0
Procedure: Acetylcholinesterase Assay and Inhibition Kinetics: Tricyclic pyrones of this invention were tested for inhibition of AChE. […] Reactions were carried out at 30° C. in 0.1 M sodium phosphate buffer at pH 8.0 in the presence of […] and 3.3×10^−4 M 3-carboxy-4-nitrophenyl disulfide. Aliquots of incubating mixtures containing enzyme alone, or enzyme in the presence of each carbamate, were withdrawn at selected time intervals and assayed for enzyme activity in order to obtain kinetic data. From the kinetic data, inhibition and bimolecular rate constants were calculated by the equation: [formula]
in which kapp is the pseudo-first-order rate constant.

Chain of acetylcholinesterase (AChE) (O42275 whole entry): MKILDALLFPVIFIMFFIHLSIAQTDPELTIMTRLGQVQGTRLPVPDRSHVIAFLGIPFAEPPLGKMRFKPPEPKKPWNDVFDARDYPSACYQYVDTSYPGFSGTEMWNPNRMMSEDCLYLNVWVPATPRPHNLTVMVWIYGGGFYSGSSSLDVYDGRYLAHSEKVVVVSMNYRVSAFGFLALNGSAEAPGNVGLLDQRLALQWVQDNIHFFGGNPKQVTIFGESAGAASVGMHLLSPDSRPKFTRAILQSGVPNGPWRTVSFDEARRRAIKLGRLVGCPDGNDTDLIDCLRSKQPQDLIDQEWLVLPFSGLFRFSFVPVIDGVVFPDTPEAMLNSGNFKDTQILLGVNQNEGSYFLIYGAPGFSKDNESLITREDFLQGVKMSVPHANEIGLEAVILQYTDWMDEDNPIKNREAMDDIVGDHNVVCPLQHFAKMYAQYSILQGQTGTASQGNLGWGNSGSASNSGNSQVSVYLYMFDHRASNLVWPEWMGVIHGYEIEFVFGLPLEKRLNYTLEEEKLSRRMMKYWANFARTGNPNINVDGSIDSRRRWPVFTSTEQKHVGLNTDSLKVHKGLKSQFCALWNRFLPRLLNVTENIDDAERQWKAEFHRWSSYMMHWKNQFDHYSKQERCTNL

Compound	% Inhibition of ACAT ([1]; 50 μM)	% Inhibition of ACAT ([1]; 100 μM)	Ki [4]	other results
C=C(C)[C@H]1CCC2=Cc3c(cc(-c4ccc(OC)c(OC)c4)oc3=O)OC2C1 (stereo partly drawn) [Compound 30, (5aS,7S)-7-Isopropenyl-3-(3,4-dimethoxyphenyl)-1H-5a,6,7,8,9-pentahydro-1-oxopyrano[4,3-b][1]benzopyran]	13.3%	21.9%		
C=C(C)[C@H]1CCC2=Cc3c(cc(-c4cccnc4)oc3=O)O[C@H]2C1 [Compound 29, (5aS,7S)-7-Isopropenyl-3-(3-pyridyl)-1H-5a,6,7,8,9-pentahydro-1-oxopyrano[4,3-b][1]benzopyran]	21%	39%		
CC12Oc3cc(-c4cccnc4)oc(=O)c3C=C1CCCC2OC=O (stereo not drawn) [2D & 2E, cis- and trans-3-(3-pyridyl)-5a-methyl-6-formyloxy-1H-5a,6,7,8,9-pentahydro-1-oxopyrano[4,3-b]benzopyran]				inhibition of L1210 cell growth (% reduction of control cell numbers) [2]: cannot inhibit the growth; inhibition of DNA synthesis in L1210 cells ([3]; 25 μM): no significant effects; inhibition of DNA synthesis in L1210 cells ([3]; 50 μM, 50 µM): 49%
Cc1cc2ncc3c(c2c(=O)o1)CCCC3 [Compound 26, 1H-3-methyl-7,8,9,10-tetrahydropyrano[4,3-c]isoquinolin-1-one]	2.7%	13.7%		
CC12Oc3cc(-c4cccnc4)oc(=O)c3C=C1CCCC2O (stereo not drawn) [2B & 2C, cis- and trans-3-(3-pyridyl)-5a-methyl-6-hydroxy-1H-5a,6,7,8,9-pentahydro-1-oxopyrano[4,3-b]benzopyran]				inhibition of L1210 cell growth (% reduction of control cell numbers) [2]: cannot inhibit the growth
O=C(O)Cc1cc2c(c(=O)o1)C=C1CCCCC1O2 (stereo not shown) [Compound 32, 3-(Carboxymethyl)-1H-5a,6,7,8,9-pentahydro-1-oxopyrano[4,3-b][1]benzopyran]	10.3%	7.9%		
CC12Oc3cc(-c4cccnc4)oc(=O)c3C=C1CCCC2O (stereo not drawn) [Compound 2B, cis-3-(3-pyridyl)-5a-methyl-6-hydroxy-1H-5a,6,7,8,9-pentahydro-1-oxopyrano[4,3-b][1]benzopyran]			8 ± 2.3 µM	
Cc1cc2c(c(=O)o1)C=C1CCCC(OC=O)C1(C)O2 (stereo not drawn) [Compound 1D, cis-3-5-a-dimethyl-6-formyloxy-1H-5a,6,7,8,9-pentahydro-1-oxopyrano[4,3-b][1]benzopyran]			5 ± 1.7 µM	IC50 ([1]; using literature IC50 of pyripyropene as standard): 52 µM
CC[C@@]1(O)C(=O)OCc2c1cc1n(c2=O)Cc2cc3ccccc3nc2-1 [CPT, 20(S)-camptothecin (CPT), reference compound]				reduction of L1210 cell numbers vs control ([2]; 1 day): 46%; reduction of L1210 cell numbers vs control ([2]; 2 days): 85%; reduction of L1210 cell numbers vs control ([2]; 3 days): 97%; reduction of L1210 cell numbers vs control ([2]; 4 days): 99%; IC50 ([3]; Mus musculus, L1210, 2 h, read-out: concentration that inhibits DNA synthesis by 50% (IC50)): ~0.65 µM
COc1ccc(-c2cc3c(c(=O)o2)C=C2CCCC(OC=O)C2(C)O3)cc1OC (stereo not drawn) [Compound 3D, cis-3-(3,4-Dimethoxyphenyl)-6-formyloxy-5a-methyl-1H-5a,6,7,8,9-pentahydro-1-oxopyrano[4,3-B][1]benzopyran]			15 ± 5.8 µM	
COc1ccc(-c2cc3c(c(=O)o2)C=C2CCCC(O)C2(C)O3)cc1OC (stereo not drawn) [Compound 3B, cis-3-(3,4-dimethoxyphenyl)-5a-methyl-6-hydroxy-1H-5a,6,7,8,9-pentahydro-1-oxopyrano[4,3-b][1]benzopyran]			4 ± 0.6 µM	
CCCCC(=O)OCC(C)[C@H]1CCC2C(O)c3c(cc(-c4ccc(OC)c(OC)c4)oc3=O)O[C@H]2C1 (stereo partly drawn) [Compound 37, (5aS,7S)-7-[2-(1-Pentanoyloxypropyl)]-10-hydroxy-3-(3,4-dimethoxyphenyl)-1H-5a,6,7,8,9,9a,10-heptahydro-1-oxopyrano[4,3-b][1]benzopyran]	36.8%	52.4%		
CCCCCCCC[C@H](SCCCCCC)C(=O)Nc1c(SC)cc(C)nc1SC [CP-113,818, reference compound]				% Inhibition of ACAT ([1]; 44 nM): 42.5%
Cc1cc2c(c(=O)o1)C=C1CCC[C@H](O)[C@@]1(C)O2 [Compound 1B, cis-3-5a-dimethyl-6-hydroxy-1H-5a,6,7,8,9-pentahydro-1-oxopyrano[4,3-b][1]benzopyran]			20 ± 5.8 µM	
tri(deacetyl)pyripyropene A [Compound 22]				inhibition of DNA synthesis in L1210 cells ([3]; 25 μM): no significant effects; inhibition of DNA synthesis in L1210 cells ([3]; 50 μM, 50 µM): no effect; also recorded: ineffective; also recorded: fail to inhibit DNA synthesis
O=c1oc(-c2cccnc2)cc2c1[C@@H](O)[C@@]1(O)CCCC[C@@H]1O2 (relative stereo) [Compound 38B, (5aS*,9aR*,10R*)-9a,10-Dihydroxy-3-(3-pyridyl)-1H-5a,6,7,8,9,9a,10-heptahydro-1-oxopyrano[4,3-b][1]benzopyran]	9.7%	11.4%		
O=C(CCCCC(=O)Cc1cc2c(c(=O)o1)C=C1CCCCC1O2)Cc1cc2c(c(=O)o1)C=C1CCCCC1O2 (stereo not shown) [Compound 33, 1,8-Di-{3-[1H-5a,6,7,8,9-pentahydro-1-oxopyrano[4,3-b][I]benzopyranyl]}-2,7-octanedione]	57%	76%		
C=C(C)[C@H]1CCC2=Cc3c(cc(C)oc3=O)O[C@H]2C1 [Compound 28, (5aS,7S)-7-Isopropenyl-3-methyl-1H-5a,6,7,8,9-pentahydro-1-oxopyrano[4,3-b][1]benzopyran]	17%	30%		
O=c1occc2nc3c(cc12)CCCC3 [Compound 24, 1H-6,7,8,9-tetrahydro-1-oxopyrano[4,3-b]quinoline]	1.9%	3.3%		
CC12Oc3cc(-c4cccnc4)oc(=O)c3C=C1CCCC2OC=O (stereo not drawn) [Compound 2D, cis-3-(3-pyridyl)-5a-methyl-6-formyloxy-1H-5a,6,7,8,9-pentahydro-1-oxopyrano[4,3-b][1]benzopyran]			26 ± 2.3 µM	
